Laboratory results published in US20180148418A1, “AMIDO-SUBSTITUTED CYCLOHEXANE DERIVATIVES” (Bayer Pharma Aktiengesellschaft, priority 2015, published 2018).

Legend:
[1] = tested on: HEK293 cells cotransfected with the FOP control vector; test: HEK293 FOP assay (control reporter with non-functional TCF elements); format: cell-based; details: Homo sapiens, 16 hours
How it was run: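 Compound series from 50 μM down to 15 nM, prediluted in DMSO then 50-fold into CAFTY buffer (pH 7.4, 2 mM Ca2+, 0.01% BSA), tested alongside TOP cells on a Geneticin-selected HEK293 FOP line whose TCF elements are replaced by a random sequence; recombinant human Wnt-3a applied at 2500-5 ng/ml.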

TNKS1 = molecular target: T1, TNKS1 (Homo sapiens, UniProt O95271); test: TNKS1 Assay B (auto-parsylation, [3H]-NAD+ SPA); format: biochemical; details: 6 nM TNKS1, auto-parsylation, over night at room temperature
T1 construct: purchased BPS Bioscience, San Diego, USA 80579 (TNKS1 Histone Ribosylation Assay Kit)
T1 sequence (O95271 1-1327): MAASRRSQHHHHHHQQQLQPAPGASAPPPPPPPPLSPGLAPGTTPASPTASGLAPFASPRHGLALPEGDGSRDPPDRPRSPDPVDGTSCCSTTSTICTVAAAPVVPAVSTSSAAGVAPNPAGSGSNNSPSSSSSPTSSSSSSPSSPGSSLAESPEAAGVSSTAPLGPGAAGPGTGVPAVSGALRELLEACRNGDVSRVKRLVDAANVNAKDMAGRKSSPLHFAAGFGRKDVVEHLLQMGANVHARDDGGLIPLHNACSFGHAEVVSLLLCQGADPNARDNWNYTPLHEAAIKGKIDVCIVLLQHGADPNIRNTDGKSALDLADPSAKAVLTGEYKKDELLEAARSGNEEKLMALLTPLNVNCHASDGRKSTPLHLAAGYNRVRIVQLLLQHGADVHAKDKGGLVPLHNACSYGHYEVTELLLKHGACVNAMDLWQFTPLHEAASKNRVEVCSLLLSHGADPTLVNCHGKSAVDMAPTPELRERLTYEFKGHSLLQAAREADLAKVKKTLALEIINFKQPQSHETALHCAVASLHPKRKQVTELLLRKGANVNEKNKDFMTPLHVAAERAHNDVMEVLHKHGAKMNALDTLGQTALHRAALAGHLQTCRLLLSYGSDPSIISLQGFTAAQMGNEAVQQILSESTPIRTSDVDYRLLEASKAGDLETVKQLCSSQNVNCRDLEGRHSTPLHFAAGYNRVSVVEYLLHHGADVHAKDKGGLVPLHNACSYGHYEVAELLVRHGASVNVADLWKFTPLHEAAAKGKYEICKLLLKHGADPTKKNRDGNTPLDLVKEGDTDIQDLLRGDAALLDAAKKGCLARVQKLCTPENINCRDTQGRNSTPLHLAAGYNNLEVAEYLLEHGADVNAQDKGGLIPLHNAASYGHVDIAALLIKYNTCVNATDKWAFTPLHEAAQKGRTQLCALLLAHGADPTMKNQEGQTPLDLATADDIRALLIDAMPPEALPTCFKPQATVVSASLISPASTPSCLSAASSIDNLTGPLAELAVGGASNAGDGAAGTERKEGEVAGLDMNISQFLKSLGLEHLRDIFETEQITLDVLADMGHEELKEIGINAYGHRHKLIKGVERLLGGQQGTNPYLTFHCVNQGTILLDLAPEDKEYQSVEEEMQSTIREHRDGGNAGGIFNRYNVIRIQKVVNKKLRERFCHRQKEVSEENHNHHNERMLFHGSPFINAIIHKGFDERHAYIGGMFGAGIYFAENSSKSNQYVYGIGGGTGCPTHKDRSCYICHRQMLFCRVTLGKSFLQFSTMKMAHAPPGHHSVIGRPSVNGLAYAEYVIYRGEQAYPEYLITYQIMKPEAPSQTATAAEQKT

SMILES	IC50 (TNKS1) [µM]	IC50 [1] [µM]
COC(C)(C)CNC(=O)c1nc[nH]c1C(=O)N[C@H]1CC[C@H](C(=O)Nc2ccc(F)cc2Cl)CC1 [Example 73, N^5-{trans-4-[(2-chloro-4-fluorophenyl)carbamoyl]cyclohexyl}-N^4-(2-methoxy-2-methylpropyl)-1H-imidazole-4,5-dicarboxamide]	0.27	19
COCC(C)NC(=O)c1nc[nH]c1C(=O)N[C@H]1CC[C@H](C(=O)Nc2ccc(F)cc2Cl)CC1 (stereo partly drawn) [Example 82, N^5-{trans-4-[(2-chloro-4-fluorophenyl)carbamoyl]cyclohexyl}-N^4-(1-methoxypropan-2-yl)-1H-imidazole-4,5-dicarboxamide]	0.3	≥ 50
COC[C@H](C)NC(=O)c1nc[nH]c1C(=O)N[C@H]1CC[C@H](C(=O)Nc2ccc(F)cc2Cl)CC1 [Example 83, N^5-{trans-4-[(2-chloro-4-fluorophenyl)carbamoyl]cyclohexyl}-N^4-[(2S)-1-methoxypropan-2-yl]-1H-imidazole-4,5-dicarboxamide]	0.61	29
COC[C@@H](C)NC(=O)c1nc[nH]c1C(=O)N[C@H]1CC[C@H](C(=O)Nc2ccc(F)cc2Cl)CC1 [Example 84, N^5-{trans-4-[(2-chloro-4-fluorophenyl)carbamoyl]cyclohexyl}-N^4-[(2R)-1-methoxypropan-2-yl]-1H-imidazole-4,5-dicarboxamide]	0.37	≥ 50
CNC(=O)c1nc[nH]c1C(=O)N[C@H]1CC[C@H](C(=O)Nc2cc(N3CCOCC3)ccc2Cl)CC1 [Example 88, N^5-(trans-4-{[2-chloro-5-(morpholin-4-yl)phenyl]carbamoyl}cyclohexyl)-N^4-methyl-1H-imidazole-4,5-dicarboxamide]	3.6	≥ 50
O=C(NCC1CCCO1)c1nc[nH]c1C(=O)N[C@H]1CC[C@H](C(=O)Nc2cc(N3CCOCC3)ccc2Cl)CC1 (stereo partly drawn) [Example 89, N^5-(trans-4-{[2-chloro-5-(morpholin-4-yl)phenyl]carbamoyl}cyclohexyl)-N^4-(tetrahydrofuran-2-ylmethyl)-1H-imidazole-4,5-dicarboxamide]	1.2	24
COC(C)(C)CNC(=O)c1nc[nH]c1C(=O)N[C@H]1CC[C@H](C(=O)Nc2cc(N3CCOCC3)ccc2Cl)CC1 [Example 90, N^5-(trans-4-{[2-chloro-5-(morpholin-4-yl)phenyl]carbamoyl}cyclohexyl)-N^4-(2-methoxy-2-methylpropyl)-1H-imidazole-4,5-dicarboxamide]	3.1	33
CC(C)(O)CNC(=O)c1nc[nH]c1C(=O)N[C@H]1CC[C@@]2(CCN(c3cccc(Cl)c3)C2=O)CC1 [Example 284, N^5-[(trans)-2-(3-chlorophenyl)-1-oxo-2-azaspiro[4.5]dec-8-yl]-N^4-(2-hydroxy-2-methylpropyl)-1H-imidazole-4,5-dicarboxamide]	0.65	6.8
COCC(C)NC(=O)c1nc[nH]c1C(=O)N[C@H]1CC[C@@]2(CCN(c3cccc(Cl)c3)C2=O)CC1 (stereo partly drawn) [Example 285, N^5-[(trans)-2-(3-chlorophenyl)-1-oxo-2-azaspiro[4.5]dec-8-yl]-N^4-(1-methoxypropan-2-yl)-1H-imidazole-4,5-dicarboxamide]	0.63	16
O=C(N[C@H]1CC[C@@]2(CCN(c3cccc(Cl)c3)C2=O)CC1)c1[nH]cnc1C(=O)N1CCOCC1 [Example 286, N-[(trans)-2-(3-chlorophenyl)-1-oxo-2-azaspiro[4.5]dec-8-yl]-4-(morpholin-4-ylcarbonyl)-1H-imidazole-5-carboxamide]	8.6	≥ 50

Now those with a lower IC50 (TNKS1), led by results:

IC50 (TNKS1) [µM]	SMILES	IC50 [1] [µM]
0.084	O=C(NCCC1CC1)c1nc[nH]c1C(=O)N[C@H]1CC[C@H](C(=O)Nc2ccc(F)cc2Cl)CC1 [Example 74, N^5-{trans-4-[(2-chloro-4-fluorophenyl)carbamoyl]cyclohexyl}-N^4-(2-cyclopropylethyl)-1H-imidazole-4,5-dicarboxamide]	32
0.084	CC(C)(O)CNC(=O)c1nc[nH]c1C(=O)N[C@H]1CC[C@H](C(=O)Nc2ccc(F)cc2Cl)CC1 [Example 75, N^5-{trans-4-[(2-chloro-4-fluorophenyl)carbamoyl]cyclohexyl}-N^4-(2-hydroxy-2-methylpropyl)-1H-imidazole-4,5-dicarboxamide]	≥ 50
0.094	CC(C)OCCNC(=O)c1nc[nH]c1C(=O)N[C@H]1CC[C@H](C(=O)Nc2ccc(F)cc2Cl)CC1 [Example 76, N^5-{trans-4-[(2-chloro-4-fluorophenyl)carbamoyl]cyclohexyl}-N^4-(2-isopropoxyethyl)-1H-imidazole-4,5-dicarboxamide]	≥ 50
0.037	CC(C)NCCNC(=O)c1nc[nH]c1C(=O)N[C@H]1CC[C@H](C(=O)Nc2ccc(F)cc2Cl)CC1 [Example 77, N^5-{trans-4-[(2-chloro-4-fluorophenyl)carbamoyl]cyclohexyl}-N^4-[2-(isopropylamino)ethyl]-1H-imidazole-4,5-dicarboxamide]	≥ 50
0.075	O=C(NCC1CCCO1)c1nc[nH]c1C(=O)N[C@H]1CC[C@H](C(=O)Nc2ccc(F)cc2Cl)CC1 (stereo partly drawn) [Example 78, N^5-{trans-4-[(2-chloro-4-fluorophenyl)carbamoyl]cyclohexyl}-N^4-(tetrahydrofuran-2-ylmethyl)-1H-imidazole-4,5-dicarboxamide]	9.7
0.17	O=C(NC[C@@H]1CCCO1)c1nc[nH]c1C(=O)N[C@H]1CC[C@H](C(=O)Nc2ccc(F)cc2Cl)CC1 [Example 79, N^5-{trans-4-[(2-chloro-4-fluorophenyl)carbamoyl]cyclohexyl}-N^4-[(2S)-tetrahydrofuran-2-ylmethyl]-1H-imidazole-4,5-dicarboxamide]	43
0.062	O=C(NC[C@H]1CCCO1)c1nc[nH]c1C(=O)N[C@H]1CC[C@H](C(=O)Nc2ccc(F)cc2Cl)CC1 [Example 80, N^5-{trans-4-[(2-chloro-4-fluorophenyl)carbamoyl]cyclohexyl}-N^4-[(2R)-tetrahydrofuran-2-ylmethyl]-1H-imidazole-4,5-dicarboxamide]	23
0.1	COC(C)CNC(=O)c1nc[nH]c1C(=O)N[C@H]1CC[C@H](C(=O)Nc2ccc(F)cc2Cl)CC1 (stereo partly drawn) [Example 81, N^5-{trans-4-[(2-chloro-4-fluorophenyl)carbamoyl]cyclohexyl}-N^4-(2-methoxypropyl)-1H-imidazole-4,5-dicarboxamide]	6.8
0.049	COC(C)(C)CNC(=O)c1nc[nH]c1C(=O)N[C@H]1CC[C@H](C(=O)Nc2cc(F)c(F)cc2Cl)CC1 [Example 85, N^5-{trans-4-[(2-chloro-4,5-difluorophenyl)carbamoyl]cyclohexyl}-N^4-(2-methoxy-2-methylpropyl)-1H-imidazole-4,5-dicarboxamide]	24
0.03	O=C(NCC1CCCO1)c1nc[nH]c1C(=O)N[C@H]1CC[C@H](C(=O)Nc2cc(F)c(F)cc2Cl)CC1 (stereo partly drawn) [Example 86, N^5-{trans-4-[(2-chloro-4,5-difluorophenyl)carbamoyl]cyclohexyl}-N^4-(tetrahydrofuran-2-ylmethyl)-1H-imidazole-4,5-dicarboxamide]	14
0.027	COCC(C)NC(=O)c1nc[nH]c1C(=O)N[C@H]1CC[C@H](C(=O)Nc2cc(F)c(F)cc2Cl)CC1 (stereo partly drawn) [Example 87, N^5-{trans-4-[(2-chloro-4,5-difluorophenyl)carbamoyl]cyclohexyl}-N^4-(1-methoxypropan-2-yl)-1H-imidazole-4,5-dicarboxamide]	≥ 50
